PubChem BioAssay AID743071 (Broad Institute, 2013)
Active and inactive are the calls of the source. How the calls were made is not given here.

Tested on: M. tuberculosis wild type plus biotin, growth inhibition
Assay: bioa inhibitor dry powder, mtb growth inhibition, wild type strain with biotin (AID 743071)
Settings: for IC90: measured here: Mtb growth IC90

SMILES	IC50	IC90 [µM]
O=C(Nc1ccc2[nH]ccc2c1)N1CCN(c2ccccc2)CC1	8.5 µM	> 50
O=C(c1ccc2c(c1)OCO2)N1CCN(Cc2ccccc2)CC1	> 50 µM (inactive)	> 50
CC(=O)c1ccc(N2CCN(C(=O)c3ccc(C)cc3)CC2)cc1	> 50 µM (inactive)	> 50
Cc1nc2ccc(NC(=O)N3CCN(c4ccccc4)CC3)cc2s1	1.9 µM	7.3
Cc1ccc(/C=C(\CC(=O)O)c2nc3ccccc3s2)cc1[N+](=O)[O-]	7.2 µM	> 50
O=C(Nc1cccc(F)c1)N1CCN(c2ccccc2)CC1	7.9 µM	> 50
Cc1cc(C)n2nc(C(=O)Nc3cccnc3)cc2n1	> 50 µM (inactive)	> 50
O=C(Nc1cccnc1)N1CCN(c2ccccc2)CC1	> 50 µM (inactive)	> 50
CC(=O)c1ccc(N2CCN(C(=O)c3cccc(F)c3)CC2)cc1	> 50 µM (inactive)	> 50
O=C(Nc1ccc2snnc2c1)N1CCCCC1	50 µM	> 50
O=C(COc1ccc2ccc(=O)oc2c1)N1CCN(c2ccc(F)cc2)CC1	> 50 µM (inactive)	> 50
CC(=O)c1ccc(N2CCN(Cc3ccc4c(c3)OCO4)CC2)cc1	50 µM	> 50
Cc1ccc(-c2cc(C(F)(F)F)n3nc(C(=O)Nc4cccnc4)cc3n2)cc1	> 50 µM (inactive)	> 50
COc1cccc(NC(=O)N2CCN(c3ccccc3)CC2)c1	50 µM	> 50
O=C(Nc1ccc(F)cc1)N1CCN(c2ccccc2)CC1	19.8 µM	> 50
CC(=O)c1ccc(N2CCN(C(=O)c3cccnc3)CC2)cc1	> 50 µM (inactive)	> 50
Cc1ccc(/C=C(\CCC(=O)O)c2nc3ccccc3s2)cc1	2.2 µM	5.6
O=C(O)CC/C(=C\c1ccc([N+](=O)[O-])cc1)c1nc2ccccc2s1	8.2 µM	> 50
CCN(CC)c1ccc2cc(C(=O)c3cccs3)c(=O)oc2c1	5.5 µM	> 50
COc1cccc(NC(=O)CCC2CCN(C(=O)c3ccc(C(C)=O)s3)CC2)c1	> 50 µM (inactive)	> 50

SMILES	IC50	IC90 [µM]
O=C(Nc1cccnc1)c1cc2nc(-c3cccs3)cc(C(F)(F)F)n2n1	> 50 µM (inactive)	> 50
CC(=O)c1ccc(N2CCN(C(=O)c3cccc(Cl)c3)CC2)cc1	> 50 µM (inactive)	> 50
O=C(Nc1cccnc1)c1cnn2c(C(F)F)cc(C3CC3)nc12	> 50 µM (inactive)	> 50
O=C(c1ccc2c(c1)OCO2)N1CCN(c2ccc(F)cc2)CC1	18.9 µM	> 50
O=C(Nc1ccc2snnc2c1)N1CCN(c2ccccc2)CC1	> 50 µM (inactive)	> 50
COc1cc(/C=C/C(=O)Nc2cccnc2)cc(OC)c1OC	> 50 µM (inactive)	> 50
CCc1ccc(N2CCN(C(=O)c3ccc4c(c3)OCO4)CC2)cc1	8.7 µM	> 50
COc1ccc(N2CCN(C(=O)c3ccc4c(c3)OCO4)CC2)cc1	10.1 µM	> 50
COc1ccc(-c2cc(C(F)(F)F)n3nc(C(=O)Nc4cccnc4)cc3n2)cc1	> 50 µM (inactive)	> 50
COc1cccc(C(=O)N2CCN(c3ccc(C(C)=O)cc3)CC2)c1	> 50 µM (inactive)	> 50
O=C(Nc1ccncc1)c1cc2nc(C3CC3)cc(C(F)F)n2n1	> 50 µM (inactive)	> 50
CC(=O)c1ccc(N2CCN(C(=O)c3ccc4c(c3)OCO4)CC2)cc1	> 50 µM (inactive)	> 50
Cc1nc2cc(NC(=O)N3CCN(c4ccccc4)CC3)ccc2o1	50 µM	> 50
Cc1ccc(NC(=O)N2CCN(c3ccccc3)CC2)cc1	8 µM	> 50
O=C(Nc1cccnc1)c1cnn2c(C(F)(F)F)cc(-c3ccccc3)nc12	> 50 µM (inactive)	> 50
CC(=O)c1ccc(N2CCN(C(=O)c3ccc(Br)cc3)CC2)c(F)c1	> 50 µM (inactive)	> 50
CCc1ccc(C(=O)N2CCN(Cc3ccc4c(c3)OCO4)CC2)cc1	8.8 µM	> 50
O=C(Nc1ccccc1)N1CCN(c2ccccc2)CC1	11.7 µM	> 50
Cc1cc(C)n2nc(C(=O)Nc3cccnc3)nc2n1	> 50 µM (inactive)	> 50
CC(=O)c1ccc(N2CCN(C(=O)c3ccc4ncsc4c3)CC2)cc1	> 50 µM (inactive)	> 50

SMILES	IC50	IC90 [µM]
CC(=O)c1ccc(N2CCN(C(=O)c3ccc(F)cc3)CC2)cc1	> 50 µM (inactive)	> 50
Cc1ccc(/C=C(\CCCC(=O)O)c2nc3ccccc3s2)cc1[N+](=O)[O-]	9.6 µM	> 50
O=C(Nc1ccc(Cl)c(-c2nc3ccccc3[nH]2)c1)c1cccnc1	6.5 µM	> 50
O=C(c1ccc2c(c1)OCO2)N1CCN(c2ccccc2)CC1	22.8 µM	> 50
O=C(Nc1ccc(Cl)cc1)c1cc2nc(C3CC3)cc(C(F)(F)F)n2n1	> 50 µM (inactive)	> 50
CCOC(=O)N1CCN(C(=O)Nc2ccc3snnc3c2)CC1	50 µM	> 50
O=C(Nc1ccc2snnc2c1)N1CCOCC1	> 50 µM (inactive)	> 50
CC(=O)c1ccc(N2CCN(C(=O)c3ccc(Cl)cc3)CC2)cc1	> 50 µM (inactive)	> 50
CC(C)(C)c1ccc(C(=O)N2CCN(c3ccc4c(c3)OCO4)CC2)cc1	15 µM	> 50
COc1ccc(C(=O)N2CCN(c3ccc(C(C)=O)cc3)CC2)cc1	81.4 µM (inactive)	> 50
Cc1ccccc1/C=C(\CCC(=O)O)c1nc2ccccc2s1	8.4 µM	40.4
Cc1ccc(/C=C(\CCC(=O)O)c2nc3ccccc3s2)cc1[N+](=O)[O-]	2 µM	8.7
O=C(Nc1cccc(Cl)c1)N1CCN(c2ccccc2)CC1	5.5 µM	> 50
CC(=O)c1ccc(N2CCN(C(=O)c3ccccc3)CC2)cc1	> 50 µM (inactive)	> 50
O=C(c1ccc2c(c1)OCO2)N1CCN(c2ccc(Cl)cc2)CC1	12.7 µM	42.7
COc1ccc(NC(=O)N2CCN(c3ccccc3)CC2)cc1	> 50 µM (inactive)	> 50
Cc1cccc(/C=C(\CCC(=O)O)c2nc3ccccc3s2)c1	3.1 µM	11.6
O=C(O)CC/C(=C\c1ccccc1[N+](=O)[O-])c1nc2ccccc2s1	> 50 µM (inactive)	> 50
COC(=O)c1c(C(=O)OC)c(-c2cccc(F)c2)n2c1CS(=O)C2 (stereo not given)	> 50 µM (inactive)	> 50
CC(=O)c1ccc(N2CCN(C(=O)c3ccc4c(c3)OCCO4)CC2)cc1	> 50 µM (inactive)	> 50
